Measured values: article PMC12538393 (RSC Advances, 2025)

Key:
ACE = ACE (Homo sapiens, UniProt P12821); assay: In vitro ACE inhibitory activity, DOJINDO ACE Kit-WST reagent box; format: biochemical
hypertensive animals = details: snake venom peptide; cited from earlier work

Chain of ACE (P12821 30-1306, species assumed): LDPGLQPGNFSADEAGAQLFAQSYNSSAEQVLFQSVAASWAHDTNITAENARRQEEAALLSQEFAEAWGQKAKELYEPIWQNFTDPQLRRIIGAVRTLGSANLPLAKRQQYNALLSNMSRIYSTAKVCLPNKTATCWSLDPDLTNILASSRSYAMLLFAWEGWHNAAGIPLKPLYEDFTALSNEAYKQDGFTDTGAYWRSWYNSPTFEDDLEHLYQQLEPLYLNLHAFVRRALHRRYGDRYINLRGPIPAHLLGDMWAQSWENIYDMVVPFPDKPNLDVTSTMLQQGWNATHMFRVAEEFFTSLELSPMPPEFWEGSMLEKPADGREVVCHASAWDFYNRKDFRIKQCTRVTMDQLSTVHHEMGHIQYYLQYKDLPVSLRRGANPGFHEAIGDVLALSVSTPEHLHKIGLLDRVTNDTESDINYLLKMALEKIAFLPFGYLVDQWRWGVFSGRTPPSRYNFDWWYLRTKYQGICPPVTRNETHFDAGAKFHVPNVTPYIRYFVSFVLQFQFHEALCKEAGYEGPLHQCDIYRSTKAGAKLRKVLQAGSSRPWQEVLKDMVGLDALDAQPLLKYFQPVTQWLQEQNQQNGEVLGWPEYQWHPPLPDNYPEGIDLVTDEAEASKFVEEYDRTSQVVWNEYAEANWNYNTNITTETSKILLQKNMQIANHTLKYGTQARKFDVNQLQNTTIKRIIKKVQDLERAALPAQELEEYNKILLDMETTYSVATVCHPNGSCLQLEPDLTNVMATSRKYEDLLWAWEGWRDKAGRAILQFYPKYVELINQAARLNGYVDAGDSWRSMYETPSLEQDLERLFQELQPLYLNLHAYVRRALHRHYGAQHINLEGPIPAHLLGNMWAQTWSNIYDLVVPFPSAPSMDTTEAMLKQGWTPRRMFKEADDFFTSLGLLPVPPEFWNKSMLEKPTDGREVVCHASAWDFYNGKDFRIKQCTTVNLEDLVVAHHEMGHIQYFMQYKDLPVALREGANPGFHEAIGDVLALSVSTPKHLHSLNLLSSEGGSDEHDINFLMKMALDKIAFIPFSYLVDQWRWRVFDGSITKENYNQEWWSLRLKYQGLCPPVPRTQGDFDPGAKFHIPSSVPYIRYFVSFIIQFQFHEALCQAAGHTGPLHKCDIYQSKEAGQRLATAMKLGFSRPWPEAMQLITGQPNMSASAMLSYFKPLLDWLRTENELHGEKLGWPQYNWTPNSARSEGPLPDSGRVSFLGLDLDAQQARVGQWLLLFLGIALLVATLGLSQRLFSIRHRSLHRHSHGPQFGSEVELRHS

Substance | ACE-inhibitory activity, comparison in words (ACE) | antihypertensive effect for hypertensive animals (hypertensive animals)
H-Asp-Arg-Tyr-OH [D2] | potencies are still higher than that of compound 144 | –
H-Leu-Arg-Asn-OH [D1] | potencies are still higher than that of compound 144 | –
Pyr-Trp-Pro-Arg-Pro-Gln-Ile-Pro-Pro | – | best antihypertensive effect for hypertensive animals
